Measurements as given in ChEMBL document CHEMBL2007661, “Compounds: GSK PKIS; Assays: UNC Frye lab” (2012).
Values joined by “and” are separate entries in the source; they are usually repeats but may differ in a detail not shown here. Identical values can stand only once.

What was measured:
[1] = target: T1, Serine/threonine-protein kinase TBK1 (Homo sapiens) (UniProt Q9UHD2); settings: at 1 µM
T1 sequence (whole entry): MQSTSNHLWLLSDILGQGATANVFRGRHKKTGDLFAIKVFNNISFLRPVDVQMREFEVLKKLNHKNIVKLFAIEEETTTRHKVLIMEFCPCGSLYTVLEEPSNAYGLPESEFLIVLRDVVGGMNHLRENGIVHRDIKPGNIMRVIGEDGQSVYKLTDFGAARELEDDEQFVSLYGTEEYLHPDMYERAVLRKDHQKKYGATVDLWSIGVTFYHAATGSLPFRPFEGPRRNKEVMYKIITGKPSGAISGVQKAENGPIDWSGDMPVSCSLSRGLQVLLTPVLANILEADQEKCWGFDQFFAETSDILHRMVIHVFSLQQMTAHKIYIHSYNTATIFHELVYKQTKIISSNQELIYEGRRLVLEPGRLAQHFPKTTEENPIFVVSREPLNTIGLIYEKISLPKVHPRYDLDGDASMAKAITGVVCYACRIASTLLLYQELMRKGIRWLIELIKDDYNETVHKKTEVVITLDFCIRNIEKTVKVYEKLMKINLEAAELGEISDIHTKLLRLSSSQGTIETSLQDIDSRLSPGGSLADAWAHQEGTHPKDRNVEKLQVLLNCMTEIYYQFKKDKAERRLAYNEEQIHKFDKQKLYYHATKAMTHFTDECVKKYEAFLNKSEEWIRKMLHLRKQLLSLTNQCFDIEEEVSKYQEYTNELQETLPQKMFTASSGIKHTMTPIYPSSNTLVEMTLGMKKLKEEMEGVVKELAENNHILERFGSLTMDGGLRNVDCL

[2] = target: T2, Inhibitor of nuclear factor kappa-B kinase subunit beta (Homo sapiens) (UniProt O14920); settings: at 1 µM
T2 sequence (whole entry): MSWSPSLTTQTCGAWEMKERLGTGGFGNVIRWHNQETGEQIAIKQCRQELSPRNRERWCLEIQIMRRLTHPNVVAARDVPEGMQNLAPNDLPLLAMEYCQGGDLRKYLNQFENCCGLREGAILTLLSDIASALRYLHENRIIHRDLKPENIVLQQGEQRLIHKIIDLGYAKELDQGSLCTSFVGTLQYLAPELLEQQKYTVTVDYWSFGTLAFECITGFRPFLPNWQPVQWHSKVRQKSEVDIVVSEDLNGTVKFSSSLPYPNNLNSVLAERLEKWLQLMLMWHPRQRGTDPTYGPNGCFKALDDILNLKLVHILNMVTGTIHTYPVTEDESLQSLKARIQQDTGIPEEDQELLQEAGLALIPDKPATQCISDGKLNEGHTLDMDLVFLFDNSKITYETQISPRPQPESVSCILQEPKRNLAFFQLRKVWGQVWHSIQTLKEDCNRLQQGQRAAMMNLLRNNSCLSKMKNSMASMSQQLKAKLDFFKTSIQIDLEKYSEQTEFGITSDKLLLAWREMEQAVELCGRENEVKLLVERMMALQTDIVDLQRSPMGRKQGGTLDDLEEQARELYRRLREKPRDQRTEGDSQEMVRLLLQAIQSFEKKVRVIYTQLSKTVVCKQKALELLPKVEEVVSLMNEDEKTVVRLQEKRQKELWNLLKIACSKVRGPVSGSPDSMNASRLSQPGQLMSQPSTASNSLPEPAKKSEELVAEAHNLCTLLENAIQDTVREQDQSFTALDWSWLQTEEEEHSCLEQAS

[3] = target: T3, Tyrosine-protein kinase Mer (Homo sapiens) (UniProt Q12866); settings: at 10 µM
T3 sequence (whole entry): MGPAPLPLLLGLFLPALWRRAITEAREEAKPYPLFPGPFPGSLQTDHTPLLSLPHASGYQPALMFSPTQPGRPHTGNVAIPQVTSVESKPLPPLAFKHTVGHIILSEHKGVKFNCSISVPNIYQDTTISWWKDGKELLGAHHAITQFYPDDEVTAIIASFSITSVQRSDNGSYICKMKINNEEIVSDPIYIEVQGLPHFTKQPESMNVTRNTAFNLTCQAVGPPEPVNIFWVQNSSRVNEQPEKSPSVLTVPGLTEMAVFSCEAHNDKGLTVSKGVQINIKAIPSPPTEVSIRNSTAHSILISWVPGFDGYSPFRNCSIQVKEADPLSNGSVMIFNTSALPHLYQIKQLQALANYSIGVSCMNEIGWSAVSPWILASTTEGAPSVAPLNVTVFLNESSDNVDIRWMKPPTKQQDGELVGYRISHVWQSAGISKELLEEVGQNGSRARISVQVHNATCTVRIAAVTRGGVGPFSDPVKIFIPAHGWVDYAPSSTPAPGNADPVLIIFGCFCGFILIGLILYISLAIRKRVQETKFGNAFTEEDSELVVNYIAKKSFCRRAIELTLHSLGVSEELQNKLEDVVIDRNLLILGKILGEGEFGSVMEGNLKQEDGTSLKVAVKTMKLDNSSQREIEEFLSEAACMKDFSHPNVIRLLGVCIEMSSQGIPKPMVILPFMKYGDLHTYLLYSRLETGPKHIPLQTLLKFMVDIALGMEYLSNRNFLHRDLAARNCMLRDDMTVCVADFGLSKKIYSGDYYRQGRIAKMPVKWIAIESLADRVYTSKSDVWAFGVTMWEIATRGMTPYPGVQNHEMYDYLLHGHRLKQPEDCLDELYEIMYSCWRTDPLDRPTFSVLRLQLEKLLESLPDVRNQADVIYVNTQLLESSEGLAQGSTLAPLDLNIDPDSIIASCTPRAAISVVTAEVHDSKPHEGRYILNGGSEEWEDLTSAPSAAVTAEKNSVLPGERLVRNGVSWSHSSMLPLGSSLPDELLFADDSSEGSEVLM

[4] = target: T4, Inhibitor of nuclear factor kappa-B kinase subunit epsilon (Homo sapiens) (UniProt Q14164); settings: at 1 µM
T4 sequence (whole entry): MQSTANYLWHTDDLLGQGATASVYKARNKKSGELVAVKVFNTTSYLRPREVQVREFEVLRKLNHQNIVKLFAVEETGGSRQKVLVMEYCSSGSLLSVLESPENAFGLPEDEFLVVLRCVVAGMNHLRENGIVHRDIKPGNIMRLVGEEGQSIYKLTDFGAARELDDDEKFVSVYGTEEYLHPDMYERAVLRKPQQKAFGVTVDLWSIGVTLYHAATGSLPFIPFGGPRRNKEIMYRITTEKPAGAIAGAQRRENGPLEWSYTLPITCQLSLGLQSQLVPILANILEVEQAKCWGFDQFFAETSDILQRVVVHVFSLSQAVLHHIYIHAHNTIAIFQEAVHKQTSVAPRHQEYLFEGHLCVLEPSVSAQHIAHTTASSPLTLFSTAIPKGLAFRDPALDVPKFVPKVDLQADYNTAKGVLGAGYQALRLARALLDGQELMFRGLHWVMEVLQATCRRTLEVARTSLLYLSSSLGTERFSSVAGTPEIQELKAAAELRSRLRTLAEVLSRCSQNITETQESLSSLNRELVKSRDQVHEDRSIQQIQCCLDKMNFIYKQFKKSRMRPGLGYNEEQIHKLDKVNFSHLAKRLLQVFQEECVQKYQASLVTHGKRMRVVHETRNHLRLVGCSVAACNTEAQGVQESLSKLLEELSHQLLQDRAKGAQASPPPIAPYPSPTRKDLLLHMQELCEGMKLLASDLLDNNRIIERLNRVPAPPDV

SMILES | inhibition [1] | inhibition [2] | inhibition [3] | inhibition [4]
NC(=O)c1cc(-c2ccc(F)cc2)cc(-c2ccncc2)c1N | 16% and 21% | 2% and 1% | 22% | 2% and 0%
Cc1cccc2c1NC(=O)/C2=N\Nc1ccc(S(N)(=O)=O)cc1 | 3% and 0% | -2% and -1% | 4% | 0% and 1%
